What was measured:
Cannabinoid receptor 2 = Cannabinoid receptor 2 (Homo sapiens, UniProt P34972); experiment: Displacement of [3H]CP-55940 from human cloned CB2 receptor
Cannabinoid receptor 1 = Cannabinoid receptor 1 (Rattus norvegicus, UniProt P20272); experiment: Displacement of [3H]CP-55940 from CB1 receptor in rat brain; assay type: tissue-based
Sequence of Cannabinoid receptor 1 (P20272 whole entry): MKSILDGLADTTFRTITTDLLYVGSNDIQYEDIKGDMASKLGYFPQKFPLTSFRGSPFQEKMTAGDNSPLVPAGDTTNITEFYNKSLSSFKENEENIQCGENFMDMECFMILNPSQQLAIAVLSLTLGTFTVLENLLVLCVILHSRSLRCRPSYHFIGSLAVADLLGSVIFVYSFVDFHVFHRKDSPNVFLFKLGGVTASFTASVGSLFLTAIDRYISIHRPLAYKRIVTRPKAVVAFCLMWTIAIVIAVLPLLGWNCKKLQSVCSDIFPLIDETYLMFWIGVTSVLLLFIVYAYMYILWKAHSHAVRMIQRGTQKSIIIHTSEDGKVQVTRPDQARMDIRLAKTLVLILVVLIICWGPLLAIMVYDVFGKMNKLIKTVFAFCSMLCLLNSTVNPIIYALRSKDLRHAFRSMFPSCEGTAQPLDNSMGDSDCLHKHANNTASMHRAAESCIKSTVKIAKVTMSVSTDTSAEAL

Sequence of Cannabinoid receptor 2 (P34972 whole entry): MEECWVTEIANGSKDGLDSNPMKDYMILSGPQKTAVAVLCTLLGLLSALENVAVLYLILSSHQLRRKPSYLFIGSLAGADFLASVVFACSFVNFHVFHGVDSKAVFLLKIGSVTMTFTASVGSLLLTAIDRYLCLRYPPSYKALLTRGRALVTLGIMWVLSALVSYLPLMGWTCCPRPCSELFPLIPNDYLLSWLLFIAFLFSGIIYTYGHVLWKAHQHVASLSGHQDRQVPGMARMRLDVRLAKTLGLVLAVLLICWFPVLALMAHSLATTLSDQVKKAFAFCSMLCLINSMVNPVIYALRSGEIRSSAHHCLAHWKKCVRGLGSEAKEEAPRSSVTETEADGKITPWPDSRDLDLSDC

| SMILES | Ki (Cannabinoid receptor 2) | Ki (Cannabinoid receptor 1) |
| --- | --- | --- |
| CCCCn1cc(C(=O)c2cccc3ccccc23)cc1-c1ccccc1 | 15 nM | 60 nM |
| CCCCCn1cc(C(=O)c2cccc3ccccc23)cc1-c1ccccc1Cl | 5.2 nM | 7.9 nM |
| CCCCCn1cc(C(=O)c2cccc3ccccc23)cc1-c1ccccc1F | 3.3 nM | 7.7 nM |
| CCCn1cc(C(=O)c2cccc3ccccc23)cc1-c1ccccc1 | 104 nM | 404 nM |
| CCCCCn1cc(C(=O)c2cccc3ccccc23)cc1-c1ccccc1OC | 20 nM | 29 nM |
| CCCCCn1cc(C(=O)c2cccc3ccccc23)cc1-c1cccc([N+](=O)[O-])c1 | 41 nM | 100 nM |
| CCCCCn1cc(C(=O)c2cccc3ccccc23)cc1-c1cccnc1 | 24 nM | 191 nM |
| CCCCCn1cc(C(=O)c2cccc3ccccc23)cc1-c1ccc(Cl)cc1 | 25 nM | 276 nM |
| CCCCCn1cc(C(=O)c2cccc3ccccc23)cc1-c1cccc(C)c1 | 39 nM | 67 nM |
| CCCCCn1cc(C(=O)c2cccc3ccccc23)cc1-c1cccc(C(F)(F)F)c1 | 71 nM | 245 nM |
| CCCCCn1cc(C(=O)c2cccc3ccccc23)cc1-c1ccc(CCCC)cc1 | 64 nM | 42 nM |
| CCCCCCCn1cc(C(=O)c2cccc3ccccc23)cc1-c1ccccc1 | 62 nM | 21 nM |
| CCCCCn1cc(C(=O)c2cccc3ccccc23)cc1-c1ccccc1C | 4 nM | 5.6 nM |
| CCCCCn1cc(C(=O)c2cccc3ccccc23)cc1-c1cccc(F)c1 | 9.1 nM | 16 nM |
| CCCCCn1cc(C(=O)c2cccc3ccccc23)cc1-c1ccccc1CC | 3.4 nM | 17 nM |
| CCCCCn1cc(C(=O)c2cccc3ccccc23)cc1-c1ccc(OC)cc1 | 41 nM | 285 nM |
| CCCCCn1cc(C(=O)c2cccc3ccccc23)cc1-c1ccc2ccccc2c1 | 169 nM | 333 nM |
| CCCCCn1cc(C(=O)c2cccc3ccccc23)cc1-c1ccc(F)cc1 | 33 nM | 41 nM |
| CCCCCn1cc(C(=O)c2cccc3ccccc23)cc1-c1cccc(Cl)c1 | 16 nM | 70 nM |
| CCCCCCn1cc(C(=O)c2cccc3ccccc23)cc1-c1ccccc1 | 7.1 nM | 11 nM |
| CCCCCn1cc(C(=O)c2cccc3ccccc23)cc1-c1ccc(C(F)(F)F)cc1 | 53 nM | 218 nM |
| CCCCCn1cc(C(=O)c2cccc3ccccc23)cc1-c1ccccc1CCCC | 69 nM | 60 nM |
| CCCCCn1cc(C(=O)c2cccc3ccccc23)cc1-c1cccc2ccccc12 | 49 nM | 41 nM |
| CCCCCn1cc(C(=O)c2cccc3ccccc23)cc1-c1ccccc1C(F)(F)F | 8.2 nM | 77 nM |
| CCCCCn1cc(C(=O)c2cccc3ccccc23)cc1-c1ccc(C)cc1 | 18 nM | 130 nM |
| CCCCCn1cc(C(=O)c2cccc3ccccc23)cc1-c1ccccc1 | 6.4 nM | 14 nM |
| CCCCCn1cc(C(=O)c2cccc3ccccc23)cc1-c1cccc(OC)c1 | 23 nM | 53 nM |
| CCCCCn1cc(C(=O)c2cccc3ccccc23)cc1-c1ccc(CC)cc1 | 29 nM | 34 nM |
